Patent publication US7267718B2, “Pullulan film compositions” (Warner-Lambert Company, LLC, priority 2000, dated 2007)

Experiment: Pullulan film gliding performance, slanted plane test (smallest gliding angle of film-coated glass plates)
Format: physicochemical
Details: smaller angle = better
Procedure: […] The mixture is heated to 70° C. under stirring for complete solubilisation and then the stirring is reduced for defoaming. The solution then is used to cast on glass plates of 4 mm thickness to form pullulan films of about 100 μm thickness after drying at room conditions. The pullulan film gliding performance is evaluated by a test on a slanted plan, a method commonly used by gelatine producers. The method determines the smallest angle of inclination of glass plate to provoke the gliding of a film coated glass plate over another one with films face to face. Consequently, the smaller the gliding angle, the better the film gliding performance.

[1] = surfactant 500 ppm/pullulan, cast pullulan film about 100 μm with kappa-carrageenan and potassium acetate
[2] = surfactant 1000 ppm, cast pullulan film about 100 μm

Row | Compound | Pullulan gliding performance (°) [1] [°] | Pullulan gliding performance (°) [2] [°] | Pullulan gliding performance (°) (surfactant 5000 ppm, cast pullulan film about 100 μm)
1 | Polysorbate 80 | 10 | 9 | –
2 | Sorbitan oleate | 9 | 7 | –
3 | Sorbitan laurate | 10 | 8 | –
4 | CCCCCCCCCCCCOS(=O)(=O)[O-].[Na+] [SLS, sodium lauryl sulphate] | 9 | 5 | 6
5 | Polysorbate 20 | 12 | 12 | –
